Some test systems named below: 786-0 renal; HS 578T breast; M14 melanoma; MALME-3M melanoma; NCI-H23 lung; OVCAR-4 ovarian; PC-3 prostate; SK-MEL-2 melanoma; SK-MEL-28 melanoma; SK-MEL-5 melanoma; T-47D breast; U251 CNS.
Common to all, as to assay: NCI-60 cell line screen, 48 h

Drawing on PubChem BioAssay (NCI), this text covers TGI for 18 molecules.

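Method: 48-hour compound exposure of cells in 96-well plates, five concentrations, linear interpolation of endpoints. TGI: total growth inhibition.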

For the molecule `COC(=O)CCC(C)[C@H]1CCC2C3C(C[C@H](OC(C)=O)[C@@]21C)[C@@]1(C)CCC2(C[C@H]1C[C@H]3OC(C)=O)OOC1(CCCCC1)OO2` (some centres not stated), the TGI in the experiment with 786-0 renal is 48.6 µM; in the experiment with HS 578T breast, 63.5 µM; in the experiment with M14 melanoma, over 100 µM; in the experiment with MALME-3M melanoma, 97.4 µM; in the experiment on NCI-H23 lung it was over 100 µM; with OVCAR-4 ovarian, 50.9 µM. Moreover, the TGI in the experiment with PC-3 prostate, with SK-MEL-2 melanoma, in the experiment on SK-MEL-28 melanoma, in the experiment with SK-MEL-5 melanoma, in the experiment on T-47D breast and in the experiment with U251 CNS was over 100 µM each time.

Take `CCCc1cc(-c2ccc(-c3cc(CCC)c(C=O)[nH]3)s2)[nH]c1C=O`: the TGI in the experiment with 786-0 renal is over 100 µM; in the experiment on HS 578T breast, over 100 µM; with M14 melanoma, over 100 µM; in the experiment on MALME-3M melanoma, over 100 µM; in the experiment on NCI-H23 lung it was over 86.1 µM; in the experiment with OVCAR-4 ovarian, over 100 µM. Also, the TGI in the experiment with PC-3 prostate was over 100 µM; with SK-MEL-2 melanoma, over 59.7 µM; with SK-MEL-28 melanoma, over 100 µM; in the experiment with SK-MEL-5 melanoma, over 100 µM; in the experiment on T-47D breast, over 100 µM; with U251 CNS, over 100 µM.

On to `CC1=C(C)C(=O)C(C2=C(C3=CC(=O)C(C)=C(C)C3=O)C(=O)c3ccccc3C2=O)=CC1=O`, for which the TGI in the experiment with 786-0 renal is 5.74 µM; in the experiment on HS 578T breast, 43.5 µM; in the experiment on M14 melanoma, 3.64 µM; with MALME-3M melanoma, 2.8 µM; in the experiment on NCI-H23 lung, 10.2 µM; in the experiment with OVCAR-4 ovarian, 4 µM. Further, the TGI in the experiment with PC-3 prostate came out at 7.83 µM; in the experiment on SK-MEL-2 melanoma, 5.71 µM; in the experiment with SK-MEL-28 melanoma, 5.03 µM; in the experiment with SK-MEL-5 melanoma it was 12.6 µM; with T-47D breast, 12.4 µM; in the experiment with U251 CNS, 12.6 µM.

With `CCCCCCC(=O)OC[n+]1cccc(-c2c(COC(=O)NC(C)C)c(COC(=O)NC(C)C)c3n2CCC3)c1`, the TGI is over 69.8 µM in the experiment with 786-0 renal; over 100 µM in the experiment on HS 578T breast; over 100 µM in the experiment on M14 melanoma; 98.5 µM in the experiment with MALME-3M melanoma; over 74.1 µM with NCI-H23 lung; over 69.1 µM with OVCAR-4 ovarian. Moreover, the TGI in the experiment with PC-3 prostate was over 100 µM; with SK-MEL-2 melanoma it was 60.4 µM; with SK-MEL-28 melanoma it was over 100 µM; with SK-MEL-5 melanoma, over 88.9 µM; in the experiment on T-47D breast, over 100 µM; in the experiment on U251 CNS, over 100 µM.

Turning to `O=C1c2c(ccc3c2CCCC3)CC1Cc1ccc2c(c1)CCCC2` (configuration not stated), the TGI in the experiment on 786-0 renal, in the experiment on HS 578T breast, in the experiment with M14 melanoma, in the experiment on MALME-3M melanoma, with NCI-H23 lung and in the experiment on OVCAR-4 ovarian was over 100 µM each time. The TGI in the experiment on PC-3 prostate was over 100 µM; in the experiment on SK-MEL-2 melanoma, over 100 µM; in the experiment with SK-MEL-28 melanoma it was over 100 µM; with SK-MEL-5 melanoma, over 100 µM; in the experiment with T-47D breast, 9.84 µM; with U251 CNS, over 100 µM.

Consider `COc1nc(C)nc2c1ncn2Cc1ccccc1`, for which the TGI in the experiment on 786-0 renal, in the experiment with HS 578T breast, in the experiment on M14 melanoma, in the experiment on MALME-3M melanoma, in the experiment on NCI-H23 lung and in the experiment on OVCAR-4 ovarian was over 100 µM in each case. For the same molecule, the TGI with PC-3 prostate, in the experiment on SK-MEL-28 melanoma, with SK-MEL-5 melanoma, in the experiment on T-47D breast and in the experiment with U251 CNS was over 100 µM each time.

As to `c1cc(C[S+]2CCCC2)oc1C[S+]1CCCC1`, the TGI in the experiment on 786-0 renal, in the experiment with HS 578T breast, with M14 melanoma, in the experiment with MALME-3M melanoma, in the experiment on NCI-H23 lung and in the experiment on OVCAR-4 ovarian was over 100 µM in each case. For the same molecule, the TGI in the experiment with PC-3 prostate, in the experiment on SK-MEL-28 melanoma, with SK-MEL-5 melanoma, in the experiment on T-47D breast and in the experiment with U251 CNS was over 100 µM throughout.

Regarding `CCc1n[nH]c(=S)n1/N=C\c1ccc(-c2ccccc2[N+](=O)[O-])o1`, the TGI in the experiment with 786-0 renal, in the experiment on HS 578T breast, in the experiment on M14 melanoma, in the experiment on MALME-3M melanoma, in the experiment with NCI-H23 lung and in the experiment on OVCAR-4 ovarian was over 100 µM in each case. Further, the TGI in the experiment on PC-3 prostate was over 100 µM; in the experiment on SK-MEL-2 melanoma it was over 100 µM; with SK-MEL-5 melanoma, 33.7 µM; with T-47D breast, over 100 µM; in the experiment with U251 CNS it was over 100 µM.

Turning to `CC(C)(CN)SCc1ccccc1`, the TGI in the experiment on 786-0 renal, with HS 578T breast, with M14 melanoma, in the experiment on MALME-3M melanoma, in the experiment on OVCAR-4 ovarian and with PC-3 prostate was over 100 µM in each case. Besides, the TGI in the experiment with SK-MEL-2 melanoma, in the experiment on SK-MEL-28 melanoma, in the experiment with SK-MEL-5 melanoma, in the experiment on T-47D breast and in the experiment on U251 CNS was over 100 µM throughout.

On to `CCCN(CCC)C(=O)c1c(Cl)c2cccnc2n2c(C)cnc12`, for which the TGI in the experiment with 786-0 renal, with HS 578T breast, with M14 melanoma, with MALME-3M melanoma, in the experiment on NCI-H23 lung and in the experiment with OVCAR-4 ovarian was over 100 µM in each case. In addition, the TGI in the experiment on PC-3 prostate was 98.6 µM; in the experiment with SK-MEL-28 melanoma, over 100 µM; in the experiment with SK-MEL-5 melanoma it was over 100 µM; in the experiment with T-47D breast, over 100 µM.

Consider `COC(=O)[C@@H]1[C@H](O)CC[C@H]2[C@@]1(C)CC[C@@H](C)[C@]2(COC(C)=O)CC(=O)c1ccoc1`, for which the TGI in the experiment with 786-0 renal, in the experiment on HS 578T breast, with M14 melanoma, in the experiment with NCI-H23 lung, with OVCAR-4 ovarian and with PC-3 prostate was over 50 µM in each case. The TGI with SK-MEL-2 melanoma, in the experiment on SK-MEL-28 melanoma, in the experiment with SK-MEL-5 melanoma, with T-47D breast and in the experiment on U251 CNS was over 50 µM in each case.

For `O=C1/C(=C/c2ccc(Cl)cc2)Sc2scc(-c3cccc([N+](=O)[O-])c3)[n+]21`, the TGI in the experiment on 786-0 renal was 6.49 µM; in the experiment with HS 578T breast, 43.6 µM; in the experiment with M14 melanoma, over 35 µM; in the experiment on NCI-H23 lung, 12.9 µM; in the experiment with OVCAR-4 ovarian it was 28.1 µM; in the experiment on PC-3 prostate, 20.6 µM. The TGI is 29.1 µM in the experiment with SK-MEL-2 melanoma; 10.2 µM in the experiment with SK-MEL-28 melanoma; 12.9 µM in the experiment with SK-MEL-5 melanoma; over 100 µM with T-47D breast; 23.6 µM with U251 CNS.

As to `Cc1cn2c(/C=C3/C(=O)Nc4ccccc43)c(C)nc2s1`, the TGI in the experiment on 786-0 renal is over 100 µM; with HS 578T breast, 7 µM; in the experiment on M14 melanoma it was over 100 µM; with MALME-3M melanoma it was over 100 µM; with NCI-H23 lung, over 100 µM; in the experiment on PC-3 prostate, 6.99 µM. The TGI in the experiment on SK-MEL-2 melanoma was 5.57 µM; in the experiment with SK-MEL-28 melanoma, over 100 µM; in the experiment on SK-MEL-5 melanoma, 14.6 µM; in the experiment with T-47D breast it was 38.5 µM; in the experiment on U251 CNS, 10.9 µM.

Turning to `C=CCC1C2CCC(O[Si](C(C)C)(C(C)C)C(C)C)(C(C(=O)OC)C2)C1O` (configuration not stated), the TGI with 786-0 renal, in the experiment with HS 578T breast, in the experiment on M14 melanoma, in the experiment with NCI-H23 lung, in the experiment with OVCAR-4 ovarian and in the experiment on PC-3 prostate was over 100 µM each time. The TGI in the experiment with SK-MEL-2 melanoma, in the experiment on SK-MEL-28 melanoma, in the experiment on SK-MEL-5 melanoma, in the experiment on T-47D breast and in the experiment with U251 CNS was over 100 µM in each case.

On to `Nc1cc(N)c(N=Nc2cccc3c(S(=O)(=O)O)cccc23)cc1N=Nc1cc([N+](=O)[O-])ccc1O`, for which the TGI in the experiment with 786-0 renal is over 100 µM; in the experiment with HS 578T breast, over 100 µM; with M14 melanoma, over 100 µM; in the experiment on MALME-3M melanoma, 64 µM; with NCI-H23 lung it was over 100 µM; with OVCAR-4 ovarian it was over 100 µM. Further, the TGI in the experiment with PC-3 prostate is over 100 µM; in the experiment with SK-MEL-2 melanoma, over 100 µM; in the experiment on SK-MEL-5 melanoma, 47.2 µM; with T-47D breast, over 100 µM; in the experiment on U251 CNS, over 100 µM.

On to `C#CC(O)Cc1ccc(OC)c2occc12` (configuration not stated), for which the TGI in the experiment on 786-0 renal, with HS 578T breast, in the experiment with M14 melanoma, in the experiment with MALME-3M melanoma, in the experiment with NCI-H23 lung and in the experiment on OVCAR-4 ovarian was over 100 µM each time. Moreover, the TGI with PC-3 prostate, with SK-MEL-2 melanoma, in the experiment on SK-MEL-5 melanoma, in the experiment with T-47D breast and with U251 CNS was over 100 µM in each case.

Take `O=[N+]([O-])c1ccc2[nH]c(O)c(N=NC(=S)Nc3ccccc3)c2c1`: the TGI is 17.7 µM in the experiment with 786-0 renal; over 100 µM in the experiment on HS 578T breast; 22.4 µM in the experiment with M14 melanoma; 25.8 µM with NCI-H23 lung; 29.2 µM in the experiment with OVCAR-4 ovarian; 20.7 µM in the experiment with PC-3 prostate. The TGI worked out at 31.3 µM with SK-MEL-2 melanoma; 52.2 µM with SK-MEL-28 melanoma; 13.5 µM in the experiment on SK-MEL-5 melanoma; 38.9 µM with T-47D breast; 16.6 µM with U251 CNS.

Turning to `CSc1nc(-c2ccc(Cl)cc2)c(C#N)c(=O)[nH]1`, the TGI with 786-0 renal, with HS 578T breast, in the experiment on M14 melanoma, in the experiment with NCI-H23 lung, in the experiment on OVCAR-4 ovarian and in the experiment with PC-3 prostate was over 100 µM each time. Besides, the TGI in the experiment with SK-MEL-2 melanoma, in the experiment with SK-MEL-28 melanoma, with SK-MEL-5 melanoma, with T-47D breast and in the experiment with U251 CNS was over 100 µM in each case.
